# Test results: patent US9724347B2, “1-pyrazolyl-3-(4-((2-anilinopyrimidin-4-yl)oxy)napththalen-1-yl) ureas as P38 MAP knase inhibitors” (Respivert Ltd., priority 2011, dated 2017)
# How the values were obtained:
# [1] = test system: d-U937 cells; experiment: Cell viability: MTT assay; format: cell-based, human; settings: 1 μg/mL
# Procedure: Differentiated U937 cells were pre-incubated with each test compound (final concentration 1 μg/mL or 10 μg/mL in 200 μL media indicated below) under two protocols: the first for 4 hr in 5% FCS RPMI1640 media and the second in 10% FCS RPMI1640 media for 24 h. The supernatant was replaced with new media (200 μL) and MTT stock solution (10 μL, 5 mg/mL) was added to each well. After incubation for 1 hr the media were removed, DMSO (200 μL) was added to each well and the plates were shaken lightly for 1 hr prior to reading the absorbance at 550 nm. The percentage loss of cell viability was calculated for each well relative to vehicle (0.5% DMSO) treatment. Consequently an apparent increase in cell viability for drug treatment relative to vehicle is tabulated as a negative percentage.
# [2] = target: p38 MAPKα isoform (MAPK14) (Homo sapiens (Human), UniProt Q16539); experiment: p38 MAPKα enzyme inhibition (FRET, Z-LYTE); format: biochemical
# Sequence of p38 MAPKα isoform (MAPK14) (Q16539 whole entry, canonical isoform): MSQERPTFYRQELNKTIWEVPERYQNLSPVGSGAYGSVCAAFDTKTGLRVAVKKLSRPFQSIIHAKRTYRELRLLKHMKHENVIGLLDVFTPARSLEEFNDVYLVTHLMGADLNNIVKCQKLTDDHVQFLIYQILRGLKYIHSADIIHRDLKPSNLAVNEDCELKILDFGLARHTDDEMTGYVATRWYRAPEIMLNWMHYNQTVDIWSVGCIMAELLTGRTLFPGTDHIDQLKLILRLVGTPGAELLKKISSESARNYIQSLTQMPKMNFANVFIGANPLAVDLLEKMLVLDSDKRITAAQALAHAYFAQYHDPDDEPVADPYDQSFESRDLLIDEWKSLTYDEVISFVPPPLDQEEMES
# Procedure: The enzyme inhibitory activities of compounds disclosed herein were determined by FRET using synthetic peptides labelled with both donor and acceptor fluorophores (Z-LYTE, Invitrogen Ltd., Paisley, UK). The inhibitory activities of test compounds against the p38 MAPKα isoform (MAPK14: Invitrogen), were evaluated indirectly by determining the level of activation/phosphorylation of the down-stream molecule, MAPKAP-K2. […] The mixture was incubated for 1 hr at RT. Development reagent (protease, 5 μL) was added for 1 hr prior to detection in a fluorescence microplate reader (Varioskan® Flash, ThermoFisher Scientific). In all cases, the site-specific protease cleaves non-phosphorylated peptide only and eliminates the FRET signal. Phosphorylation levels of each reaction were calculated using the ratio of coumarin emission (donor) over fluorescein emission (acceptor), for which low ratios indicate high phosphorylation and high ratios indicate low phosphorylation levels.
# [3] = test system: ICAM-1 expression in BEAS2B cells; experiment: Poly I:C-induced ICAM-1 expression in BEAS2B cells; format: cell-based, human; settings: Homo sapiens, BEAS-2B, read-out: PolyIC/ICAM1 IC50 (BEAS2B)
# Procedure: Poly I:C was used in these studies as a simple, RNA virus mimic. Poly I:C-Oligofectamine mixture (1 μg/mL Poly I:C, ±2% Oligofectamine, 25 μL; Invivogen Ltd., San Diego, Calif., and Invitrogen, Carlsbad, Calif., respectively) was transfected into BEAS2B cells (human bronchial epithelial cells, ATCC). Cells were pre-incubated with final concentrations of test compounds for 2 hr and the level of ICAM-1 expression on the cell surface was determined by cell-based ELISA. At a time point 18 hr after poly I:C transfection, cells were fixed with 4% formaldehyde in PBS (100 μL) and then endogenous peroxidase was quenched by the addition of washing buffer (100 μL, 0.05% Tween in PBS: PBS-Tween) containing 0.1% sodium azide and 1% hydrogen peroxide. Cells were washed with wash-buffer (3×200 μL). and after blocking the wells with 5% milk in PBS-Tween (100 μL) for 1 hr, the cells were incubated with anti-human ICAM-1 antibody (50 μL; Cell Signaling Technology, Danvers, Mass.) in 1% BSA PBS overnight at 4° C.
# The cells were washed with PBS-Tween (3×200 μL) and incubated with the secondary antibody (100 μL; HRP-conjugated anti-rabbit IgG, Dako Ltd., Glostrup, Denmark). The cells were then incubated with of substrate (50 μL) for 2-20 min, followed by the addition of stop solution (50 μL, 1N H2SO4). The ICAM-1 signal was detected by reading […] the absorbance at 450 nm against a reference wavelength of 655 nm using a spectrophotometer. The cells were then washed with PBS-Tween (3×200 μL) and total cell numbers in each well were determined by reading absorbance at 595 nm after Crystal Violet staining (50 μL of a 2% solution in PBS) and elution by 1% SDS solution (100 μL) in distilled water. The measured OD 450-655 readings were corrected for cell number by dividing with the OD595 reading in each well. The inhibition of ICAM-1 expression was calculated at each concentration of test compound by comparison with vehicle control.
# [4] = target: GSK 3α enzyme isoform (Homo sapiens (Human), UniProt P49840); experiment: GSK 3α enzyme inhibition (FRET, Z-LYTE); format: biochemical; settings: read-out: IC50 Values for Enzyme Inhibition GSK3α
# Sequence of GSK 3α enzyme isoform (P49840 whole entry, canonical isoform): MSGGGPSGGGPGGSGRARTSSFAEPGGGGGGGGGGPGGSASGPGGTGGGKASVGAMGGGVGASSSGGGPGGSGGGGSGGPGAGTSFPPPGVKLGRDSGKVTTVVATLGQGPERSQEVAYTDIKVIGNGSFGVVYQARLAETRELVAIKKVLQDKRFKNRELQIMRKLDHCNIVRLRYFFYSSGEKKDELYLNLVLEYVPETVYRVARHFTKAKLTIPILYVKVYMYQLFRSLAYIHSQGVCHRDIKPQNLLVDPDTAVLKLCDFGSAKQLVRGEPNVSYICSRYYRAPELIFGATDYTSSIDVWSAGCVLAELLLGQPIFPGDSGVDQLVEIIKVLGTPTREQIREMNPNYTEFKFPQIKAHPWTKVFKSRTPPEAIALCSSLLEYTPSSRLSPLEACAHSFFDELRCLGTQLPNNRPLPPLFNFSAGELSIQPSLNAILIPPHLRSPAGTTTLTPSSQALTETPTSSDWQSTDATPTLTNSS
# Procedure: The enzyme inhibitory activities of compounds disclosed herein were determined by FRET using synthetic peptides labelled with both donor and acceptor fluorophores (Z-LYTE, Invitrogen Ltd., Paisley, UK).
# The inhibitory activities of test compounds against the GSK 3α enzyme isoform (Invitrogen), were evaluated by determining the level of activation/phosphorylation of the target peptide.
# The GSK3-α protein (500 ng/mL, 2.5 μL) was mixed with the test compound (2.5 μL at either 4 μg/mL, 0.4 μg/mL, 0.04 μg/mL, or 0.004 μg/mL) for 2 hr at RT. The FRET peptide (8 μM, 2.5 μL), which is a phosphorylation target for GSK3α, and ATP (40 μM, 2.5 μL) were then added to the enzyme/compound mixture and the resulting mixture incubated for 1 hr. Development reagent (protease, 5 μL) was added for 1 hr prior to detection in a fluorescence microplate reader (Varioskan® Flash, ThermoFisher Scientific).
# In all cases, the site-specific protease cleaves non-phosphorylated peptide only and eliminates the FRET signal. Phosphorylation levels of each reaction were calculated using the ratio of coumarin emission (donor) over fluorescein emission (acceptor), for which low ratios indicate high phosphorylation and high ratios indicate low phosphorylation levels.
# [5] = target: p38MAPKγ (MAPK12) (Homo sapiens (Human), UniProt P53778); experiment: p38 MAPKγ enzyme inhibition (FRET, Z-LYTE); format: biochemical
# Sequence of p38MAPKγ (MAPK12) (P53778 whole entry): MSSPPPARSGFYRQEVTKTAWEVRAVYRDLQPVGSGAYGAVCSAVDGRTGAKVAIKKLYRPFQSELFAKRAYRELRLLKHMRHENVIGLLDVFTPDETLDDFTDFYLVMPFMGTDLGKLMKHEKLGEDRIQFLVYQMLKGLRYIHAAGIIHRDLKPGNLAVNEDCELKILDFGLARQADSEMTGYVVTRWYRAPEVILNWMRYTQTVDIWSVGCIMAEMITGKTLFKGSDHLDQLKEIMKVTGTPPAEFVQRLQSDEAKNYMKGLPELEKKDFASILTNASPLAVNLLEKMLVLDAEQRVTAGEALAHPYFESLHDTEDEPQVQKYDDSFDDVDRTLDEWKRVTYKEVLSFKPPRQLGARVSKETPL
# Procedure: The enzyme inhibitory activities of compounds disclosed herein were determined by FRET using synthetic peptides labelled with both donor and acceptor fluorophores (Z-LYTE, Invitrogen Ltd., Paisley, UK). […] Development reagent (protease, 5 μL) was added for 1 hr prior to detection in a fluorescence microplate reader (Varioskan® Flash, Thermo Scientific). In all cases, the site-specific protease cleaves non-phosphorylated peptide only and eliminates the FRET signal. Phosphorylation levels of each reaction were calculated using the ratio of coumarin emission (donor) over fluorescein emission (acceptor), for which low ratios indicate high phosphorylation and high ratios indicate low phosphorylation levels.
Compound,MTT Assay Cell viability at time point in d-U937 Cells ([1]; 4 h),MTT Assay Cell viability at time point in d-U937 Cells ([1]; 24 h),IC50 [2] [nM],IC50 [3] [nM],IC50 [4] [µM],IC50 [5] [µM]
"Cc1ccc(-n2nc(C(C)(C)C)cc2NC(=O)Nc2ccc(Oc3ccnc(Nc4ccccc4F)n3)c3ccccc23)cc1 [Example 4, 1-(3-(tert-butyl)-1-(p-tolyl)-1H-pyrazol-5-yl)-3-(4-((2-((2-fluorophenyl)amino)pyrimidin-4-yl)oxy)naphthalen-1-yl)urea]","−ve (−ve and +ve indicate the value is below and above respectively, the no significant effect threshold defined as 30% inhibition at 1 μg/mL at the time point indicated)","−ve (−ve and +ve indicate the value is below and above respectively, the no significant effect threshold defined as 30% inhibition at 1 μg/mL at the time point indicated)",165,144,> 16.6,8.2
"Cc1ccc(-n2nc(C(C)(C)C)cc2NC(=O)Nc2ccc(Oc3ccnc(Nc4cc(C)ccc4C)n3)c3ccccc23)cc1 [Example 10, 1-(3-(tert-butyl)-1-(p-tolyl)-1H-pyrazol-5-yl)-3-(4-((2-((2,5-dimethylphenyl)amino)pyrimidin-4-yl)oxy)naphthalen-1-yl)urea]","−ve (−ve and +ve indicate the value is below and above respectively, the no significant effect threshold defined as 30% inhibition at 1 μg/mL at the time point indicated)","−ve (−ve and +ve indicate the value is below and above respectively, the no significant effect threshold defined as 30% inhibition at 1 μg/mL at the time point indicated)",195,43,> 16.3,> 16.3
"Cc1ccc(Nc2nccc(Oc3ccc(NC(=O)Nc4cc(C(C)(C)C)nn4-c4ccc(C)cc4)c4ccccc34)n2)cc1 [Example 11, 1-(3-(tert-butyl)-1-(p-tolyl)-1H-pyrazol-5-yl)-3-(4-((2-(p-tolylamino)pyrimidin-4-yl)oxy)naphthalen-1-yl)urea]","−ve (−ve and +ve indicate the value is below and above respectively, the no significant effect threshold defined as 30% inhibition at 1 μg/mL at the time point indicated)","−ve (−ve and +ve indicate the value is below and above respectively, the no significant effect threshold defined as 30% inhibition at 1 μg/mL at the time point indicated)",356,11,> 16.7,> 16.7
"Cc1ccc(-n2nc(C(C)(C)C)cc2NC(=O)Nc2ccc(Oc3ccnc(Nc4cccc(C)c4)n3)c3ccccc23)cc1 [Example 12, 1-(3-(tert-butyl)-1-(p-tolyl)-lH-pyrazol-5-yl)-3-(4-((2-(m-tolylamino)pyrimidin-4-yl)oxy)naphthalen-1-yl)urea]","−ve (−ve and +ve indicate the value is below and above respectively, the no significant effect threshold defined as 30% inhibition at 1 μg/mL at the time point indicated)","−ve (−ve and +ve indicate the value is below and above respectively, the no significant effect threshold defined as 30% inhibition at 1 μg/mL at the time point indicated)",169,2.7,> 16.7,> 16.7
"Cc1ccc(-n2nc(C(C)(C)C)cc2NC(=O)Nc2ccc(Oc3ccnc(Nc4cccc(Cl)c4)n3)c3ccccc23)cc1 [Example 13, 1-(3-(tert-butyl)-1-(p-tolyl)-1H-pyrazol-5-yl)-3-(4-((2-((3-chlorophenyl)amino)pyrimidin-4-yl)oxy)naphthalen-1-yl)urea]","−ve (−ve and +ve indicate the value is below and above respectively, the no significant effect threshold defined as 30% inhibition at 1 μg/mL at the time point indicated)","−ve (−ve and +ve indicate the value is below and above respectively, the no significant effect threshold defined as 30% inhibition at 1 μg/mL at the time point indicated)",262,3,> 16.2,> 16.2
"COc1cccc(Nc2nccc(Oc3ccc(NC(=O)Nc4cc(C(C)(C)C)nn4-c4ccc(C)cc4)c4ccccc34)n2)c1 [Example 14, 1-(3-(tert-butyl)-1-(p-tolyl)-1H-pyrazol-5-yl)-3-(4-((2-((3-methoxyphenyl)amino)pyrimidin-4-yl)oxy)naphthalen-1-yl)urea]","−ve (−ve and +ve indicate the value is below and above respectively, the no significant effect threshold defined as 30% inhibition at 1 μg/mL at the time point indicated)","−ve (−ve and +ve indicate the value is below and above respectively, the no significant effect threshold defined as 30% inhibition at 1 μg/mL at the time point indicated)",119,9.8,> 16.3,> 16.3
"Cc1ccc(-n2nc(C(C)(C)C)cc2NC(=O)Nc2ccc(Oc3ccnc(Nc4cccc(F)c4)n3)c3ccccc23)cc1 [Example 15, 1-(3-(tert-butyl)-1-(p-tolyl)-1H-pyrazol-5-yl)-3-(4-((2-((3-fluorophenyl)amino)pyrimidin-4-yl)oxy)naphthalen-1-yl)urea]","−ve (−ve and +ve indicate the value is below and above respectively, the no significant effect threshold defined as 30% inhibition at 1 μg/mL at the time point indicated)","−ve (−ve and +ve indicate the value is below and above respectively, the no significant effect threshold defined as 30% inhibition at 1 μg/mL at the time point indicated)",155,9.3,> 16.6,> 16.6
